Here are results for eight compounds from patent US12324839B2, “Testosterone-inducing peptide compounds and associated combinations” (THE ROYAL INSTITUTION FOR THE ADVANCEMENT OF …, priority 2018, dated 2025).

A short description of series [1]: Peptide stability in plasma. The series is classed as in vitro ADME, Brown-Norway rats. The following applies: for half-life in plasma (rank order): 4 μM peptide (KVSQ 12.5 μM) in 100 μL rat plasma, 37° C., 1-120 minutes; for stability / degradation in plasma: in vitro rat plasma incubation. How it is done: Peptide stability in plasma, oral pharmacokinetics, and quantification. For peptide stability experiments, plasma from Brown-Norway rats age 90-140 days was collected and stored at −20° C. until further use. The plasma was thawed, spun at 12 000 RPM for 10 min, and kept at 4° C. 4 μM of the various peptides were incubated with 100 μL of plasma that was warmed at 37° C. for 10 min before use. After 1, 15, 30, 60, 90 or 120 minutes, the plasma/peptide samples were crashed with 300 μL of 100% methanol, spun at 14 000 RPM for 10 min, and the supernatant collected. The methanol in the supernatant was evaporated and the samples were re-extracted. The final pellet was solubilized in 5 μL methanol followed by the addition of 100 μL of sterile double distilled water. The extracted samples were transferred to plastic tubes and placed in the autoloader of the mass spectrometer.
(§1) The analytical instrumentation consisted of a Thermo-Scientific ISQ Quantiva Triple Quadrupole Mass Spectrometer (QQQ), incorporating a heated electrospray ionization (HESI) source, and a Thermo-Scientific UltiMate™ 3000 UHPLC system (including, UltiMate™ 3000 RS autosampler). Analytical conditions were developed using a reference standard in a solution containing 5 μM of the corresponding peptide. The chromatography was resolved by isocratic elution of a binary solvent system incorporating (A) 0.1% Formic Acid (aq) and (B) ACN+0.1% FA and using an Agilent Eclipse Plus™ C18 analytical column (100 mm×2.1 mm ID, 1.8 μm particle). A 5 μL injection volume and solvent flow rate of 150 μL/min were used. The MS/MS acquisition time was 7 min and total run time was 8.3 min/injection. The triple Quadrupole MS/MS instrumentation conditions were as follows: the HESI source voltage was 3200 V, the sheath gas […], auxiliary gas 20 L/min, sweep gas 2.0 L/min, the ion transfer temperature was 350° C., the vaporizer temperature was 350° C., the CID gas was 1.5 (mTorr) and the dwell time was 100 msec. The Q1 Resolution (FWHM) was 0.4 (unitless) and the Q3 resolution (FWHM) was 0.7 (unitless). The instrument ran in a selected reaction monitoring (SRM), positive ion detection mode at various collision energies (CE) for the following mass transitions: • Ac-RITQdS-NH2: p84 (m/z 645→m/z 295, m/z 396) • RdVTQ: p72 (m/z 503→m/z 211). • Ac-RdITQ-NH2: p87 (m/z 558→m/z 391, m/z 267) • RVTQ: p64 (m/z 503→m/z 211; m/z 503→m/z 357 and m/z 503→m/z 256) • KVSQ: p95 (m/z 461→m/z 129) and (m/z 461→m/z 234)

The subject of series [2] is plasma corticosterone level in Brown-Norway rats. Kind of series: Oral administration (gavage) of peptides, plasma corticosterone. Type of series: in vivo. The following applies: gavage with increasing concentrations, 2 hrs. How it is done:
(§2) Peptides. Peptides were obtained from CanPeptide (Montreal, Quebec) with >95% purity. All peptides were dissolved in molecular grade, sterile double distilled water to obtain a 1 mM stock solution and stored at −20° C. Peptides used for oral screenings were prepared from 1 mM peptide stock and diluted in sterile tap water in a total volume of 1 mL. Peptides used for pharmacokinetic experiments were diluted at 10 mg/ml using sterile tap water. Some of the peptides were chemically modified after synthesis. The following table summarizes the peptides that have been tested:
(§3) Animal handling, blood collections, surgical procedures, and oral administration of peptides. Brown-Norway rats aged 22-28, 36-42, or 50-56 days-old were purchased from Charles River Laboratories (Senneville, Quebec) and aged until needed. Rats were kept on a 12 L/12 D day cycle with lights on at 7 AM and access to food and water ad libitum.
For all experiments, plasma samples were obtained via percutaneous jugular puncture and collected in EDTA KE/1.3 tubes (Sarstedt, Numbrecht, Germany, Cat #5072511). […]
Plasma steroid measurements. Testosterone levels were measured using Cayman (Ann Arbor, MI) EIA kit Cat #582701, and corticosterone levels were measured using Cayman EIA kit Cat #501320. All samples were measured in duplicate according to the manufacturer's instructions. […]

Series [3] relates to plasma testosterone level in Brown-Norway rats. Kind of series: Subcutaneous osmotic pump infusion of tetrapeptides, plasma testosterone (Example I). Type of series: in vivo. How it is done: Osmotic pumps. Model 2006 osmotic pumps, infusing 0.15 μL/hr, were purchased from Alzet (Cupertino, CA). The peptide concentration loaded into the pumps was adjusted to deliver the doses indicated in each figure. The pump infusion rates varied by production lot and were adjusted accordingly. Pumps were loaded 24 hrs prior to surgical implantation under sterile conditions and were kept at 37° C. in PBS.
as §3
(§4) For all experiments, plasma samples were obtained via percutaneous jugular puncture and collected in EDTA KE/1.3 tubes (Sarstedt, Numbrecht, Germany, Cat #5072511). Blood collection time points are indicated in each figure legend. Samples were centrifuged at 1 300 RCF for 10 min, and the plasma was stored in 2 mL Wheaton glass vials (Fisher Scientific, Hampton, NH, Cat #03 337 21A) and kept at −20° C. until needed.
Brown-Norway rats aged ˜29 day-old were implanted with osmotic infusion pumps in the interscapular region under general anesthesia with isoflurane following antisepsis using iodine. The surgical wound was closed with two to three staples that were removed a week after the surgery. Subcutaneous carprofen (Zoetis, Parsippany, NJ) was given before the surgical procedure and in the following two days for pain management.
(§5) Plasma steroid measurements. Testosterone levels were measured using Cayman (Ann Arbor, MI) EIA kit Cat #582701, and corticosterone levels were measured using Cayman EIA kit Cat #501320. All samples were measured in duplicate according to the manufacturer's instructions. Samples were diluted until the average control levels fitted the middle of the standard curve. The number of animals used for each experiment is noted in the corresponding figure legend.

Series [4] shares this test system. Kind of series: Oral administration (gavage) of peptides, plasma testosterone. The series is classed as in vivo. The conditions noted are these: for average testosterone levels: gavage ~10 μg/kg; for average testosterone levels across doses: gavage ~10, 220, or 420 μg/kg, after two hrs, rats aged 82-131 days; for testosterone levels: oral gavage ~580 μg/kg. How it is done:
as §2, §3, §4
(§6) For all oral experiments, administration via gavage began between 8:30-8:50 am with a 3-minute delay between each rat. Animals used for pharmacokinetic studies were fasted for 4 hrs before starting gavage at 1 pm with a 3-minute delay between each rat.
as §5

The nature of series [5]: Oral pharmacokinetics after single oral dose. The conditions noted are these: single oral dose of 10 mg peptide, gavage. The series is classed as in vivo, Brown-Norway rats. How it is done:
as §6
For oral pharmacokinetic experiments, jugular blood samples were collected following a single oral dose of 10 mg peptide in 1 ml of vehicle after 5, 15, 30, 45, 60, 90, and 120 minutes. Protein inhibitor cocktail (ROCHE, cOmplete protein inhibitors, Cat #11697498001), which was added into the EDTA collection tubes, was used for KVSQ and RVTQ peptides. Plasma was immediately extracted, and 100 μL of plasma were crashed with 300 μL of 100% methanol, spun at 14 000 RPM for 10 min, and the supernatant harvested. Re-extraction of the precipitant and solubilization of the pellet were as described above.
as §1, with “The instrument ran in a selected reaction monitoring (SRM), positive ion detection mode at various collision energies (CE) for the following mass transitions: • Ac-RITQdS-NH2: p84 (m/z 645→m/z 295, m/z 396) • RdVTQ: p72 (m/z 503→m/z 211). • Ac-RdITQ-NH2: p87 (m/z 558→m/z 391, m/z 267) • RVTQ: p64 (m/z 503→m/z 211; m/z 503→m/z 357 and m/z 503→m/z 256) • KVSQ: p95 (m/z 461→m/z 129) and (m/z 461→m/z 234)” left out

[6] abbreviates: samples at age 54 days (first round), ~370 ng/kg/day.

Square brackets hold non-standard residues; d marks the D form. Peptide text beside a SMILES is read from it.

With `CC[C@H](C)[C@H](NC(=O)[C@@H](N)CCCNC(=N)N)C(=O)N[C@H](C(=O)N[C@@H](CCC(N)=O)C(=O)O)[C@@H](C)O` [RITQ] (H-RITQ-OH), the “half-life in plasma (rank order)” value in series [1] is reported as “Ac-RITQdS-NH2>RdVTQ>Ac-RdITQ-NH2>RITQ>RVTQ>KVSQ”. In addition, the “stability / degradation in plasma” value in series [1] was “rapid time-dependent degradation”. The “corticosterone levels, dose-response” value in series [2] was “no corresponding significant changes”. Further, the circulating testosterone levels result in series [3] (setting [6]) was “non-significant increase”; in series [3] (samples at age 65 days (second round), ~330 ng/kg/day), “significant increase”. For the same compound, the “testosterone levels, dose-response” value in series [4] (gavage 10 μg/kg, 2 hrs) is listed as “significant increase”; in series [4] (gavage ~220 μg/kg, 2 hrs), “non-significant decrease”; in series [4] (gavage ~520 μg/kg, 2 hrs), “significant increase”. In addition, in series [4] (third screening, 2 hrs), the average testosterone levels entry is listed as “increased, although not significantly”. For the same compound, the “steroid (testosterone) levels” value in series [4] (third screening, gavage ~220 μg/kg, 2 hrs) is reported as “decrease in steroid levels”.

In the case of `CC[C@H](C)[C@H](NC(=O)[C@H](CCCNC(=N)N)NC(C)=O)C(=O)N[C@H](C(=O)N[C@@H](CCC(N)=O)C(=O)N[C@H](CO)C(N)=O)[C@@H](C)O` [Ac-RITQdS-NH2] (Ac-RITQ[dS]-NH2), the Tmax in series [5] (Brown-Norway, rat, plasma, read-out: time to peak concentration in blood (converted)) was about 15 min. Also, in series [1], the “half-life in plasma (rank order)” value is reported as “Ac-RITQdS-NH2>RdVTQ>Ac-RdITQ-NH2>RITQ>RVTQ>KVSQ” and the “stability / degradation in plasma” value is “most stable peptide”. Moreover, the “average testosterone levels across doses” value in series [4] is recorded as “increased average testosterone levels”. In series [4] (third screening, 2 hrs), the average testosterone levels entry is on record as “increased, although not significantly”.

For KITQ, in series [3] (setting [6]), the circulating testosterone levels entry is on record as “significant increase”.

As to RVTQdS-NH2, the testosterone levels result in series [4] (2 hr post-treatment) is on record as “best significant increase in testosterone levels”; in series [4] (3 hrs sampling time), “significantly increased testosterone levels”.

With `CC(C)[C@@H](NC(=O)[C@@H](N)CCCNC(=N)N)C(=O)N[C@H](C(=O)N[C@@H](CCC(N)=O)C(=O)O)[C@@H](C)O` [RdVTQ] (H-R[dV]TQ-OH), the “half-life in plasma (rank order)” value in series [1] is given as “Ac-RITQdS-NH2>RdVTQ>Ac-RdITQ-NH2>RITQ>RVTQ>KVSQ”. Besides, the “corticosterone levels, dose-response” value in series [2] is “no corresponding significant changes”. For the same compound, the “testosterone levels, dose-response” value in series [4] (gavage 10 μg/kg, 2 hrs) is recorded as “trend to increase”; in series [4] (gavage 800 μg/kg, 2 hrs), “significant increases”; in series [4] (gavage ~400 μg/kg, 2 hrs) it was “significant increases”. Moreover, the “average testosterone levels across doses” value in series [4] is recorded as “increased average testosterone levels”. Besides, the “average testosterone levels, dose-response” value in series [4] (gavage, all doses tested, 2 hrs) is recorded as “increased the average testosterone levels at all doses tested”. The average testosterone levels entry in series [4] (third screening, 2 hrs) is recorded as “increased, although not significantly”.

For `CC[C@@H](C)[C@@H](NC(=O)[C@H](CCCNC(=N)N)NC(C)=O)C(=O)N[C@H](C(=O)N[C@@H](CCC(N)=O)C(N)=O)[C@@H](C)O` [Ac-RdITQ-NH2] (Ac-R[dI]TQ-NH2), in series [1], the “half-life in plasma (rank order)” value is recorded as “Ac-RITQdS-NH2>RdVTQ>Ac-RdITQ-NH2>RITQ>RVTQ>KVSQ”. Moreover, in series [4], the “average testosterone levels across doses” value is recorded as “increased average testosterone levels”. Also, the average testosterone levels result in series [4] (third screening, 2 hrs) is reported as “increased, although not significantly”.

On to `CC(C)[C@H](NC(=O)[C@@H](N)CCCCN)C(=O)N[C@@H](CO)C(=O)N[C@@H](CCC(N)=O)C(=O)O` [KVSQ] (H-KVSQ-OH), for which the “circulating peptide levels (detection)” value in series [5] was “not detected”. For the same compound, in series [1], the “half-life in plasma (rank order)” value is “Ac-RITQdS-NH2>RdVTQ>Ac-RdITQ-NH2>RITQ>RVTQ>KVSQ” and the “stability / degradation in plasma” value was “rapid degradation”. In series [4], the “average testosterone levels across doses” value was “increased average testosterone levels”. Further, the average testosterone levels result in series [4] (third screening, 2 hrs) is recorded as “increased, although not significantly”.

For the compound Ac-KdITQ-NH2, the average testosterone levels entry in series [4] (third screening, 2 hrs) was “increased, although not significantly”.
